The structures appear in SMILES notation.

In one assay the target is T1, human p38 kinase alpha (Homo sapiens, UniProt Q16539).
T1 construct: GST (N, cleaved yes); made in house; host or cells: E. coli DH10B
T1 sequence (Q16539 whole entry): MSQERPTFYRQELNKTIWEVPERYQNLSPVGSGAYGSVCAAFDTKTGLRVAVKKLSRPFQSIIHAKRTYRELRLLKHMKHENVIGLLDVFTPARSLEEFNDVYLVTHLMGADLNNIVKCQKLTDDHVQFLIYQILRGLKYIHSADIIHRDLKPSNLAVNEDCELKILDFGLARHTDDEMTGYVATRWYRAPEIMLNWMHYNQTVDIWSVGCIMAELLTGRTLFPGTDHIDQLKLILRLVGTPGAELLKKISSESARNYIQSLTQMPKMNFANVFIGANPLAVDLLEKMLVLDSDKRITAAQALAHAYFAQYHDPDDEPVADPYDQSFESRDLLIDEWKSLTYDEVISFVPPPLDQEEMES
In words: p38 kinase in vitro assay, phosphorylation of biotinylated PHAS-I with 32P-ATP. The note with it: @ 1.0 uM. It counts as biochemical.
Take `O=C(NCCc1[nH]nc(-c2ccc(F)cc2)c1-c1ccncc1)NCc1ccccc1` [Example B-1031]: the “P38 alpha kinase % inhib @ conc. (uM)” value amounted to 69.0% @. The same measure, in the same setting: as for `O=C(NCCc1[nH]nc(-c2ccc(F)cc2)c1-c1ccncc1)N1CCCC1` [Example B-1032], the figure is 76.0% @; as for `O=C(NCCc1[nH]nc(-c2ccc(F)cc2)c1-c1ccncc1)N1CCOCC1` [Example B-1033], 86.0% @; as for `O=C(NCCc1[nH]nc(-c2ccc(F)cc2)c1-c1ccncc1)Nc1ccc(F)cc1` [Example B-1034], 66.0% @. As to `CN(C)C(=O)NCCc1[nH]nc(-c2ccc(F)cc2)c1-c1ccncc1` [Example B-1035], the “P38 alpha kinase % inhib @ conc. (uM)” value was found to be 75.0% @. On to `O=C(NCCc1[nH]nc(-c2ccc(F)cc2)c1-c1ccncc1)Nc1ccccc1F` [Example B-1038], for which the “P38 alpha kinase % inhib @ conc. (uM)” value was found to be 57.0% @. Still for that read-out and setting: as for `C=CCNC(=O)NCCc1[nH]nc(-c2ccc(F)cc2)c1-c1ccncc1` [Example B-1040], the figure is 72.0% @; as for `CCCNC(=O)NCCc1[nH]nc(-c2ccc(F)cc2)c1-c1ccncc1` [Example B-1041], 70.0% @.

For the compound `C[C@H](NC(=O)NCCc1[nH]nc(-c2ccc(F)cc2)c1-c1ccncc1)c1ccccc1` [Example B-1042], the “P38 alpha kinase % inhib @ conc. (uM)” value was found to be 79.0% @.

On to `O=C(NCCc1[nH]nc(-c2ccc(F)cc2)c1-c1ccncc1)Nc1ccccc1` [Example B-1043], for which the “P38 alpha kinase % inhib @ conc. (uM)” value stood at 64.0% @. As for `O=C(NCCc1ccccc1)NCCc1[nH]nc(-c2ccc(F)cc2)c1-c1ccncc1` [Example B-1044], the “P38 alpha kinase % inhib @ conc. (uM)” value is 94.0% @. Same read-out and setting: the result for `O=C(NCCc1[nH]nc(-c2ccc(F)cc2)c1-c1ccncc1)Nc1cccc(F)c1` [Example B-1046] reads 72.0% @; that for `COc1ccc(NC(=O)NCCc2[nH]nc(-c3ccc(F)cc3)c2-c2ccncc2)cc1` [Example B-1047], 72.0% @.

As for `CCN(CC)C(=O)NCCc1[nH]nc(-c2ccc(F)cc2)c1-c1ccncc1` [Example B-1048], the “P38 alpha kinase % inhib @ conc. (uM)” value is on record as 67.0% @. On the same count and under the same terms, the result for `CCNC(=O)NCCc1[nH]nc(-c2ccc(F)cc2)c1-c1ccncc1` [Example B-1049] reads 67.0% @; that for `O=C(Cc1cccs1)NCCc1[nH]nc(-c2ccc(F)cc2)c1-c1ccncc1` [Example B-1051], 68.0% @; that for `CC(C)(C)C(=O)NCCc1[nH]nc(-c2ccc(F)cc2)c1-c1ccncc1` [Example B-1052], 69.0% @.

For `CCCOC(=O)NCCc1[nH]nc(-c2ccc(F)cc2)c1-c1ccncc1` [Example B-1053], the “P38 alpha kinase % inhib @ conc. (uM)” value was 78.0% @. Still for that read-out and setting: as for `CCOC(=O)NCCc1[nH]nc(-c2ccc(F)cc2)c1-c1ccncc1` [Example B-1054], the figure is 79.0% @; as for `CC(C)OC(=O)NCCc1[nH]nc(-c2ccc(F)cc2)c1-c1ccncc1` [Example B-1057], 85.0% @.

The assay is the same for the next values; noted with them: in vitro P38-alpha kinase inhibition; read-out: P38 alpha kinase IC50.
One may read the IC50 as the midpoint of a concentration-inhibition curve. Regarding `CC(=O)Nc1nc(C)c(S(=O)(=O)NCCc2[nH]nc(-c3ccc(F)cc3)c2-c2ccncc2)s1` [Example B-1058], the IC50 turned out to be 660 nM. The same measure, in the same setting: as for `O=S(=O)(NCCc1[nH]nc(-c2ccc(F)cc2)c1-c1ccncc1)c1ccc(Cl)cc1` [Example B-1061], the figure is 30 nM; as for `O=C(O)c1ccccc1S(=O)(=O)NCCc1[nH]nc(-c2ccc(F)cc2)c1-c1ccncc1` [Example B-1065], 560 nM. On the same count and under the same terms, the result for `O=S(=O)(NCCc1[nH]nc(-c2ccc(F)cc2)c1-c1ccncc1)c1cc(Cl)ccc1Cl` [Example B-1066] reads less than 100 nM. On the same count and under the same terms, the result for `Cc1cc(C)c(S(=O)(=O)NCCc2[nH]nc(-c3ccc(F)cc3)c2-c2ccncc2)c(C)c1` [Example B-1067] reads 1600 nM; that for `O=S(=O)(NCCc1[nH]nc(-c2ccc(F)cc2)c1-c1ccncc1)c1cccc2ccccc12` [Example B-1069], 220 nM.

For `O=[N+]([O-])c1ccccc1CS(=O)(=O)NCCc1[nH]nc(-c2ccc(F)cc2)c1-c1ccncc1` [Example B-1070], the IC50 is less than 100 nM.

With `O=S(=O)(NCCc1[nH]nc(-c2ccc(F)cc2)c1-c1ccncc1)c1cccc2cccnc12` [Example B-1071], the IC50 was less than 100 nM. Same read-out and setting: as for `CC(C)c1ccc(S(=O)(=O)NCCc2[nH]nc(-c3ccc(F)cc3)c2-c2ccncc2)cc1` [Example B-1074], the figure is 230 nM; as for `O=S(=O)(NCCc1[nH]nc(-c2ccc(F)cc2)c1-c1ccncc1)c1ccc(F)cc1Cl` [Example B-1077], less than 100 nM; as for `N#Cc1ccccc1S(=O)(=O)NCCc1[nH]nc(-c2ccc(F)cc2)c1-c1ccncc1` [Example B-1078], 260 nM. Still for that read-out and setting: the result for `Cc1ccc(F)cc1S(=O)(=O)NCCc1[nH]nc(-c2ccc(F)cc2)c1-c1ccncc1` [Example B-1079] reads less than 100 nM; that for `O=S(=O)(NCCc1[nH]nc(-c2ccc(F)cc2)c1-c1ccncc1)c1c(Cl)cccc1Cl` [Example B-1081], less than 100 nM; that for `O=S(=O)(NCCc1[nH]nc(-c2ccc(F)cc2)c1-c1ccncc1)c1ccccc1Br` [Example B-1082], less than 100 nM. On the same count and under the same terms, the result for `O=S(=O)(NCCc1[nH]nc(-c2ccc(F)cc2)c1-c1ccncc1)c1cccc(Br)c1` [Example B-1083] reads less than 100 nM. With `O=S(=O)(NCCc1[nH]nc(-c2ccc(F)cc2)c1-c1ccncc1)c1ccccc1C(F)(F)F` [Example B-1086], the IC50 was less than 100 nM. For the compound `O=S(=O)(NCCc1[nH]nc(-c2ccc(F)cc2)c1-c1ccncc1)c1ccc(C(F)(F)F)cc1` [Example B-1087], the IC50 turned out to be 50 nM.

Turning to `CCc1ccc(S(=O)(=O)NCCc2[nH]nc(-c3ccc(F)cc3)c2-c2ccncc2)cc1` [Example B-1088], the IC50 was determined as 730 nM.

With `Cc1cccc(S(=O)(=O)NCCc2[nH]nc(-c3ccc(F)cc3)c2-c2ccncc2)c1` [Example B-1089], the IC50 was less than 100 nM. On the same count and under the same terms, the result for `O=S(=O)(NCCc1[nH]nc(-c2ccc(F)cc2)c1-c1ccncc1)c1cccc(Cl)c1` [Example B-1090] reads less than 100 nM; that for `O=S(=O)(NCCc1[nH]nc(-c2ccc(F)cc2)c1-c1ccncc1)c1ccccc1Cl` [Example B-1091], less than 100 nM; that for `O=S(=O)(NCCc1[nH]nc(-c2ccc(F)cc2)c1-c1ccncc1)c1cc(Cl)cc(Cl)c1` [Example B-1092], 270 nM. Same read-out and setting: as for `O=S(=O)(NCCc1[nH]nc(-c2ccc(F)cc2)c1-c1ccncc1)c1ccc(F)c(Cl)c1` [Example B-1094], the figure is 13 nM; as for `Cc1cccc(Cl)c1S(=O)(=O)NCCc1[nH]nc(-c2ccc(F)cc2)c1-c1ccncc1` [Example B-1095], less than 100 nM. Same read-out and setting: the result for `Cc1ccc(C)c(S(=O)(=O)NCCc2[nH]nc(-c3ccc(F)cc3)c2-c2ccncc2)c1` [Example B-1096] reads less than 100 nM; that for `Cc1ccccc1S(=O)(=O)NCCc1[nH]nc(-c2ccc(F)cc2)c1-c1ccncc1` [Example B-1097], less than 100 nM; that for `COc1ccc(C)cc1S(=O)(=O)NCCc1[nH]nc(-c2ccc(F)cc2)c1-c1ccncc1` [Example B-1098], less than 100 nM.

As for `O=S(=O)(NCCc1[nH]nc(-c2ccc(F)cc2)c1-c1ccncc1)c1cccc(C(F)(F)F)c1` [Example B-1099], the IC50 was determined as 260 nM. Still for that read-out and setting: the result for `CC1(C)C2CCC1(S(=O)(=O)NCCc1[nH]nc(-c3ccc(F)cc3)c1-c1ccncc1)C(=O)C2` (stereo not drawn) [Example B-1100] reads 220 nM. For the compound `O=S(=O)(NCCc1[nH]nc(-c2ccc(F)cc2)c1-c1ccncc1)c1ccc(Cl)s1` [Example B-1101], the IC50 stood at 26 nM.

Regarding `COc1ccc(Br)cc1S(=O)(=O)NCCc1[nH]nc(-c2ccc(F)cc2)c1-c1ccncc1` [Example B-1102], the IC50 is 35 nM. The same measure, in the same setting: as for `O=S(=O)(NCCc1[nH]nc(-c2ccc(F)cc2)c1-c1ccncc1)c1ccc2ccccc2c1` [Example B-1103], the figure is 94 nM; as for `Cc1noc(C)c1S(=O)(=O)NCCc1[nH]nc(-c2ccc(F)cc2)c1-c1ccncc1` [Example B-1104], 120 nM; as for `O=S(=O)(NCCc1[nH]nc(-c2ccc(F)cc2)c1-c1ccncc1)c1cccc2nonc12` [Example B-1105], less than 100 nM.

On to `COc1ccc(Cl)cc1S(=O)(=O)NCCc1[nH]nc(-c2ccc(F)cc2)c1-c1ccncc1` [Example B-1106], for which the IC50 was less than 100 nM. Turning to `N#Cc1ccc(S(=O)(=O)NCCc2[nH]nc(-c3ccc(F)cc3)c2-c2ccncc2)cc1` [Example B-1107], the IC50 was determined as 57 nM. The same measure, in the same setting: as for `O=C(NCc1ccc(S(=O)(=O)NCCc2[nH]nc(-c3ccc(F)cc3)c2-c2ccncc2)s1)c1ccccc1` [Example B-1108], the figure is 220 nM. The same measure, in the same setting: as for `O=S(=O)(NCCc1[nH]nc(-c2ccc(F)cc2)c1-c1ccncc1)c1ccc(-c2ccccc2)cc1` [Example B-1109], the figure is 54 nM; as for `Cc1c(C)c(S(=O)(=O)NCCc2[nH]nc(-c3ccc(F)cc3)c2-c2ccncc2)c(C)c2c1OC(C)(C)CC2` [Example B-1110], 470 nM; as for `O=S(=O)(NCCc1[nH]nc(-c2ccc(F)cc2)c1-c1ccncc1)c1ccc(-c2ccccn2)s1` [Example B-1111], 190 nM. Consider `O=S(=O)(NCCc1[nH]nc(-c2ccc(F)cc2)c1-c1ccncc1)c1cc(S(=O)(=O)c2ccccc2)cs1` [Example B-1112], for which the IC50 is 580 nM. Still for that read-out and setting: the result for `O=S(=O)(NCCc1[nH]nc(-c2ccc(F)cc2)c1-c1ccncc1)c1ccc(-c2ccon2)s1` [Example B-1113] reads less than 100 nM; that for `Cn1cnc(S(=O)(=O)NCCc2[nH]nc(-c3ccc(F)cc3)c2-c2ccncc2)c1` [Example B-1114], 69 nM; that for `CN(C)S(=O)(=O)NCCc1[nH]nc(-c2ccc(F)cc2)c1-c1ccncc1` [Example B-1115], 24 nM.

Take `O=S(=O)(NCCc1[nH]nc(-c2ccc(F)cc2)c1-c1ccncc1)c1ccc(S(=O)(=O)c2ccccc2)s1` [Example B-1116]: the IC50 turned out to be 410 nM. Same read-out and setting: the result for `O=S(=O)(NCCc1[nH]nc(-c2ccc(F)cc2)c1-c1ccncc1)c1cccc2cnccc12` [Example B-1118] reads 330 nM.

These data come from patent US6979686B1, “Substituted pyrazoles as p38 kinase inhibitors” (Pharmacia Corporation, priority 2001, dated 2005).
